Measured values from patent US6426360B1, “4,5-substituted imidazolyl compounds for the treatment of inflammation” (G D Searle & Co., priority 1994, dated 2002).
Marks after values point to notes of the source that are not given here.

Columns and labels:
Human COX II = molecular target: T1, Human COX II (Homo sapiens, UniProt P35354); experiment: COX II activity in vitro (PGE2 ELISA, recombinant enzyme); assay type: biochemical; conditions: arachidonic acid 10 μM, pre-incubation 10-20 minutes; read-out: Human COX II ID50
T1 construct: A 2.0 kb fragment containing the coding region of either human or murine COX-I or human or murine COX-II; made in house; host or cells: SF9 insect cells (recombinant baculovirus, transfer vector pVL1393)
T1 sequence (P35354 18-604): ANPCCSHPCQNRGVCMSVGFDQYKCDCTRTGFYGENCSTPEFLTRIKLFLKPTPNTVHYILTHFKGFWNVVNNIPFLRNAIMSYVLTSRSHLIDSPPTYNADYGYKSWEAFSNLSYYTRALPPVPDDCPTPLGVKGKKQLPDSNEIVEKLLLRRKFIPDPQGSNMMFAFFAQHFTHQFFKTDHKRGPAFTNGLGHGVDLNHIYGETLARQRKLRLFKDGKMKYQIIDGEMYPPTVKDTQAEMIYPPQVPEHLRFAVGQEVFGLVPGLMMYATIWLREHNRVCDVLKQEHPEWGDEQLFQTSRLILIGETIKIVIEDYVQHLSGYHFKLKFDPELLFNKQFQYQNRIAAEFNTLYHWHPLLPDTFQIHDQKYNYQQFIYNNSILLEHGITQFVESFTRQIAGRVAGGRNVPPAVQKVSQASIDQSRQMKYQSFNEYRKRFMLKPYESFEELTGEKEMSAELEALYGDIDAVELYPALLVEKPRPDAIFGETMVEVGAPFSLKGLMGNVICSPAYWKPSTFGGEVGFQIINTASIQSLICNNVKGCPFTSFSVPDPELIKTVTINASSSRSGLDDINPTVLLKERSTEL
Experimental: The COX II inhibition activity of the compounds of this invention illustrated in the Examples was determined by the following methods.
(§1) A 2.0 kb fragment containing the coding region of either human or murine COX-I or human or murine COX-II was cloned into a BamH1 site of the baculovirus transfer vector pVL1393 (Invitrogen) to generate the baculovirus transfer vectors for COX-I and COX-II in a manner similar to the method of D. R. O'Reilly et al (Baculovirus Expression Vectors: A Laboratory Manual (1992)). Recombinant baculoviruses were isolated by transfecting 4 μg of baculovirus transfer vector DNA into SF9 insect cells ([…]) along with 200 ng of linearized baculovirus plasmid DNA by the calcium phosphate method. See M. D. Summers and G. E. Smith, A Manual of Methods for Baculovirus Vectors and Insect Cell Culture Procedures, Texas Agric. Exp. Station Bull. 1555 (1987). Recombinant viruses were purified by three rounds of plaque purification and high titer (10E7-10E8 pfu/ml), stocks of virus were prepared. For large scale production, SF9 insect cells were infected in 10 liter fermentors (0.5×10^6/ml) with the recombinant baculovirus stock such that the multiplicity of infection was 0.1. After 72 hours the cells were centrifuged and the cell pellet homogenized in Tris/Sucrose (50 mM: 25%, pH 8.0) containing 1% 3-[(3-cholamidopropyl)dimethylammonio]-1-propanesulfonate (CHAPS). The homogenate was centrifuged at 10,000×G for 30 minutes, and the resultant supernatant was stored at −80° C. before being assayed for COX activity.
(§2) COX activity was assayed as PGE2 formed/μg protein/time using an ELISA to detect the prostaglandin released. CHAPS-solubilized insect cell membranes containing the appropriate COX enzyme were incubated in a potassium phosphate buffer (50 mM, pH 8.0) containing epinephrine, phenol, and heme with the addition of arachidonic acid (10 μM). Compounds were pre-incubated with the enzyme for 10-20 minutes prior to the addition of arachidonic acid. Any reaction between the arachidonic acid and the enzyme was stopped after ten minutes at 37° C./room temperature by transferring 40 μl of reaction mix into 160 μl ELISA buffer and 25 μM indomethacin. The PGE2 formed was measured by standard ELISA technology (Cayman Chemical).

[1] = system: carrageenan-induced hyperalgesic foot withdrawal; experiment: Rat Carrageenan-induced Analgesia Test; assay type: in vivo; conditions: oral, 3 h after carrageenan
Experimental: The analgesia test using rat carrageenan was performed with materials, reagents and procedures essentially as described by Hargreaves, et al., (Pain, 32, 77 (1988)). Male Sprague-Dawley rats were treated as previously described for the Carrageenan Foot Pad Edema test. Three hours after the injection of the carrageenan, the rats were placed in a special plexiglass container with a transparent floor having a high intensity lamp as a radiant heat source, positionable under the floor. After an initial twenty minute period, thermal stimulation was begun on either the injected foot or on the contralateral uninjected foot. A photoelectric cell turned off the lamp and timer when light was interrupted by paw withdrawal. The time until the rat withdraws its foot was then measured. The withdrawal latency in seconds was determined for the control and drug-treated groups, and percent inhibition of the hyperalgesic foot withdrawal determined.

carrageenan foot edema = experiment: Rat Carrageenan Foot Pad Edema Test; assay type: in vivo; conditions: 30 mg/kg body weight, oral, dosed 1 h before carrageenan, foot volume 3 h after carrageenan
Experimental: The carrageenan foot edema test was performed with materials, reagents and procedures essentially as described by Winter, et al., (Proc. Soc. Exp. Biol. Med., 111, 544 (1962)). Male Sprague-Dawley rats were selected in each group so that the average body weight was as close as possible. Rats were fasted with free access to water for over sixteen hours prior to the test. The rats were dosed orally (1 ml) with compounds suspended in vehicle containing 0.5% methylcellulose and 0.025% surfactant, or with vehicle alone. One hour later a subplantar injection of 0.1 ml of 1% solution of carrageenan/sterile 0.9% saline was administered and the volume of the injected foot was measured with a displacement plethysmometer connected to a pressure transducer with a digital indicator. Three hours after the injection of the carrageenan, the volume of the foot was again measured. The average foot swelling in a group of drug-treated animals was compared with that of a group of placebo-treated animals and the. percentage inhibition of edema was determined (Otterness and Bliven, Laboratory Models for Testing NSAIDs, in Non-steroidal Anti-Inflammatory Drugs, (J. Lombardino, ed. 1985)).

Human COX I = molecular target: T2, Human COX I (Homo sapiens, UniProt P23219); experiment: COX I activity in vitro (PGE2 ELISA, recombinant enzyme); assay type: biochemical; conditions: arachidonic acid 10 μM, pre-incubation 10-20 minutes; read-out: Human COX I ID50
T2 construct: A 2.0 kb fragment containing the coding region of either human or murine COX-I or human or murine COX-II; made in house; host or cells: SF9 insect cells (recombinant baculovirus, transfer vector pVL1393)
Experimental: as §1, §2

T2 sequence (P23219 24-599): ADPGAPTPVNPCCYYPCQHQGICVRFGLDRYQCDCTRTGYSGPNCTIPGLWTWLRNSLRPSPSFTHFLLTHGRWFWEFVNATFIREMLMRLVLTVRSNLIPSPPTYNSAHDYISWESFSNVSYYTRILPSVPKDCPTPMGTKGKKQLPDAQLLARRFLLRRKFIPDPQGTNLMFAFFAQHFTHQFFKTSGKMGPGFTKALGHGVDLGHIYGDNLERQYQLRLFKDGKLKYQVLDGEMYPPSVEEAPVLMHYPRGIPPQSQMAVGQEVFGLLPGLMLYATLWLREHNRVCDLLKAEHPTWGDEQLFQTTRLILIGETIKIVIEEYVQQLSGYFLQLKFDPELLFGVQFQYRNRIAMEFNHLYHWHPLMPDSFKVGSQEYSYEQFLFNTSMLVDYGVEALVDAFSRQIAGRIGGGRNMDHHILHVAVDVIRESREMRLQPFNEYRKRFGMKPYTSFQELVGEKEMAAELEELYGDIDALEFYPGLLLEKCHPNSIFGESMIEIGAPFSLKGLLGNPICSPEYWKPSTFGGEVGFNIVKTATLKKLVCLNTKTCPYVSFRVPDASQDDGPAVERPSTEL

Structure (SMILES) | IC50 (Human COX II) [µM] | melting point | ANALGESIA % Inhibition ([1]; 30 mg/kg body weight) [%] | RAT PAW EDEMA % Inhibition (carrageenan foot edema) [%] | IC50 (Human COX I) [µM] | ANALGESIA % Inhibition ([1]; 50 mg/kg body weight)
CS(=O)(=O)c1ccc(-c2nc(C(F)(F)F)[nH]c2-c2ccc(F)cc2)cc1 [Example 1, 5-(4-Fluorophenyl)-4-(4-methylsulfonylphenyl)-2-trifluoromethyl-1H-imidazole] | 0.2 | 249 to 250 °C (dec.) | 25 | 22 | > 100 | –
CS(=O)(=O)c1ccc(-c2nc(C(F)(F)F)[nH]c2-c2ccccc2)cc1 [Example 19, 4-[4-(Methylsulfonyl)phenyl]-5-phenyl-2-(trifluoromethyl)-1H-imidazole] | 0.5 | 228 to 230 °C | – | – | > 100 | –
CS(=O)(=O)c1ccc(-c2nc(-c3ccoc3)[nH]c2-c2ccc(F)cc2)cc1 [Example 20, 5-(4-Fluorophenyl)-2-(3-furyl)-4-(4-methylsulfonylphenyl)-1H-imidazole] | 40.7 | 233 to 235 °C (dec.) | – | – | > 100 | –
CS(=O)(=O)c1ccc(-c2nc(C(F)(F)F)[nH]c2-c2ccc(Br)s2)cc1 [Example 47, 5-(5-Bromothien-2-yl)-4-[4-(methylsulfonyl)phenyl]-2-(trifluoromethyl)-1H-imidazole] | 0.1 | 261 to 262 °C | – | – | 12.9 | –
CN(C)c1ccc(-c2[nH]c(C(F)(F)F)nc2-c2ccc(S(C)(=O)=O)cc2)cc1 [Example 48, N,N-Dimethyl-4-[4-[4-(methylsulfonyl)phenyl]-2-(trifluoromethyl)-1H-imidazol-5-yl]benzenamine] | 8.7 | 248 to 251 °C | – | – | > 100 | –
CS(=O)(=O)c1ccc(-c2[nH]c(S)nc2-c2ccc(F)cc2)cc1 [Example 49, 4-(4-Fluorophenyl)-5-[4-(methylsulfonyl)phenyl]-1H-imidazole-2-thiol] | 55 | 158 to 161 °C | – | – | 10.8 | –
CS(=O)(=O)c1ccc(-c2[nH]c(SCc3ccc4ccccc4n3)nc2-c2ccc(F)cc2)cc1 [Example 50, 2-[[[4-(4-Fluorophenyl)-5-[4-(methylsulfonyl)phenyl]-1H-imidazol-2-yl]thio]methyl]quinoline] | 1.5 | 179 to 182 °C | – | – | > 100 | –
CS(=O)(=O)c1ccc(-c2[nH]c(S(=O)(=O)Cc3ccccc3)nc2-c2ccc(F)cc2)cc1 [Example 51, 4-(4-Fluorophenyl)-5-[4-(methylsulfonyl)phenyl]-2-[(phenylmethyl)sulfonyl]-1H-imidazole] | 1.7 | 211 to 213 °C | – | – | > 100 | –
CSc1ccc(-c2[nH]c(C(F)(F)F)nc2-c2ccc(S(C)(=O)=O)cc2)cc1Cl [Example 55, 5-[3-Chloro-4-(methylthio)phenyl]-4-[4-(methylsulfonyl)phenyl]-2-(trifluoromethyl)-1H-imidazole] | 0.3 | 255 to 257 °C | – | – | > 100 | –
CC(=O)n1c(C(F)(F)F)nc(-c2ccc(S(C)(=O)=O)cc2)c1-c1cc(C)cc(Cl)c1 [Example 58, 1-[5-(3-Chloro-5-methylphenyl)-4-[4-(methylsulfonyl)phenyl]-2-(trifluoromethyl)-1H-imidazol-1-yl]ethanone] | 0.2 | 257 °C | – | 14 | > 100 | –
CS(=O)(=O)c1ccc(-c2nc(C(F)(F)F)[nH]c2-c2cccs2)cc1 [Example 70, 4-[4-(Methylsulfonyl)phenyl]-5-(2-thiophenyl)-2-(trifluoromethyl)-1H-imidazole] | 1.4 | 95 to 97 °C | – | 27 | > 100 | 29* %
CS(=O)(=O)c1ccc(-c2nc(C(F)(F)F)[nH]c2C2CCCCCC2)cc1 [Example 72, 5-[4-Cycloheptyl)-4-[4-(methylsulfonyl)phenyl]-2-(trifluoromethyl)-1H-imidazole] | 3 | 206 to 207 °C | – | – | > 100 | –
COCc1nc(-c2ccc(S(C)(=O)=O)cc2)c(-c2ccc(F)cc2)[nH]1 [Example 79, 5-(4-Fluorophenyl)-2-(methoxymethyl)-4-[4-(methylsulfonyl)-phenyl]-1H-imidazole] | 8.3 | 169 °C | – | – | > 100 | –
CC(=O)c1nc(-c2ccc(F)cc2)c(-c2ccc(S(C)(=O)=O)cc2)[nH]1 [Example 83, 1-[4-(4-Fluorophenyl)-5-[4-(methylsulfonyl)phenyl]-1H-imidazol-2-yl] ethanone] | 4.3 | 215 to 217 °C | – | – | > 100 | –
CS(=O)(=O)c1ccc(-c2[nH]c(C(=O)CCc3ccccc3)nc2-c2ccc(F)cc2)cc1 [Example 85] | 0.4 | 227 to 231 °C | – | – | > 100 | –
CS(=O)(=O)c1ccc(-c2[nH]c(C(=O)C(F)(F)F)nc2-c2ccc(F)cc2)cc1 [Example 89] | 5.3 | 291.7 °C | – | – | > 100 | –
CS(=O)(=O)c1ccc(-c2[nH]c(C(O)C(F)(F)F)nc2-c2ccc(F)cc2)cc1 (centres unmarked) [Example 90, 4-(4-Fluorophenyl)-5-(4-(methylsulfonyl)phenyl]-a-(trifluoromethyl)-1H-imidazole-2-methanol] | 3.9 | 126 to 130 °C | – | – | > 100 | –
COC(C)c1nc(-c2ccc(F)cc2)c(-c2ccc(S(C)(=O)=O)cc2)[nH]1 (centres unmarked) [Example 94, 4-(4-Fluorophenyl)-2-(1-methoxyethyl)-5-[4-(methyl-sulfonyl)phenyl]-1H-imidazole] | 6.4 | 212 °C | – | – | > 100 | –
CC(F)(F)c1nc(-c2ccc(F)cc2)c(-c2ccc(S(C)(=O)=O)cc2)[nH]1 [Example 95, 2-(1,1-Difluoroethyl)-4-(4-fluorophenyl)-5-[4-(methyl-sulfonyl)phenyl]-1H-imidazole] | 2.4 | 211 °C | – | – | > 100 | –
